# Reference: PubChem BioAssay AID1159557 (GlaxoSmithKline (GSK), 2015)
# Calls of active or inactive are those of the source. No rule for the calls is given here.
# Tested on: Trypanosoma brucei growth inhibition
# Experiment: trypanosome proliferation inhibitors (AID 1159557);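 also: parasites exposed to compound for 48 h before the resazurin readout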
row,IC50,SMILES
1,25 µM,O=C(Nc1cccc(F)c1)N1CCC(Oc2cccc(-c3cccnc3)c2)CC1
2,32 µM,O=C(NCCc1cccnc1)c1ccc(-c2ccccc2F)o1
3,> 40 µM (inactive),COc1ccc(OC)c2c(=O)c(Cc3ccccc3)c(C)[nH]c12
4,0.2 µM,O=C(Nc1ccc(C(=O)N2CCCC2c2ccc3c(c2)OCCCO3)cc1)c1ccco1 (stereo not drawn)
5,0.25 µM,CCc1ccccc1[C@@H](C)NC(=O)c1cnc2c(cnn2CC)c1NC1CCN(C(N)=O)CC1
6,0.2 µM,COc1ccc(NC(=O)c2ccc(NC(=O)CN(c3ccccc3C)S(C)(=O)=O)cc2)cc1
7,0.32 µM,O=c1cc(NCCCNCc2cc(C(F)(F)F)cs2)[nH]c2ccccc12
8,0.5 µM,CS(=O)(=O)c1ccc(Nc2nccc(Nc3n[nH]c4ccc(F)cc34)n2)c(F)c1
9,0.79 µM,Cc1cc(Oc2cc(Cl)c(Cl)cc2Cl)n2ncnc2n1
10,> 40 µM (inactive),CCOc1ccccc1C(=O)Nc1nnc(-c2ccc3c(c2)OCO3)s1
11,6.3 µM,c1ccc(-c2nc(NC3CCCC3)c3ccccc3n2)nc1
12,0.32 µM,COc1ncc(-c2ccc3nccc(-c4ccncc4)c3c2)cc1NS(C)(=O)=O
13,3.2 µM,Cc1ccc(-c2csc(NC(=O)C=Cc3ccc(S(=O)(=O)N4CCOCC4)cc3)n2)o1
14,> 40 µM (inactive),Cc1cc2cncn2c(C2CCCCN2C(=O)c2cccs2)n1 (stereo not drawn)
15,10 µM,Cc1nc(-c2ccc3c(c2)OCO3)sc1C(=O)NCc1ccc2c(c1)OCO2
16,16 µM,O=C(Nc1nc2ccccc2[nH]1)c1c(O)c2cccc3c2n(c1=O)CC3
17,> 40 µM (inactive),O=S(=O)(NCC(c1cccnc1)N1CCN(c2ccc(F)cc2)CC1)c1cccs1 (stereo not drawn)
18,16 µM,O=C1CN(C2CCCc3c(OCc4ccncc4)cccc32)C(=O)N1C1CCCCC1 (stereo not drawn)
19,0.05 µM,COc1ccc(NS(=O)(=O)c2cc(NC(=O)c3ccc([N+](=O)[O-])s3)ccc2OC)cc1
20,> 40 µM (inactive),O=[N+]([O-])c1cccc(Nc2cncc(-c3ccccc3CO)c2)c1
21,0.63 µM,COC(=O)c1ccc(-c2cnc3ccc(NCc4ccccn4)nn23)cc1
22,0.5 µM,Cc1ccc(C)c(CN2C(=O)NC3(CCc4ccccc43)C2=O)c1 (stereo not drawn)
23,13 µM,CN1CCN(c2nc(-c3ccc(Cl)cc3)c3c(N)n(C)nc3n2)CC1
24,0.2 µM,O=C(NCCCn1cnc2ccccc21)c1ccc(NC(=O)c2ccco2)cc1
25,16 µM,NC(=O)c1ccc(-c2cccc(OCCN3CCN(C4CCCCC4)CC3)c2)cc1
26,25 µM,COc1cc(C(C)C)c(S(C)(=O)=O)cc1C(=O)N1CCN(c2ccccc2Cl)CC1

row,IC50,SMILES
1,3.2 µM,CCc1cc(C(=O)Nc2nccn2-c2ccccc2)cs1
2,0.4 µM,N#Cc1cc(-c2ccnc(Nc3cccc(CN4CCOCC4)c3)n2)ccc1NCCN
3,> 40 µM (inactive),CC(Cn1ccnc1)NC(=O)C1CC1c1cccc(Cl)c1Cl (stereo not drawn)
4,6.3 µM,Cc1ccccc1CNC(=O)CN(Cc1ccccn1)Cc1ccccn1
5,0.5 µM,CCc1ccc2nc(NC(=O)c3cc(N4CCOCC4)ccn3)sc2c1
6,10 µM,CS(=O)(=O)c1ccc(CC(=O)Nc2nc(-c3ccc(Cl)s3)cs2)cc1
7,25 µM,COc1cc2c(cc1OC)[C@H]1[C@@H](C)c3ccc(OC)c(OC)c3CN1CC2
8,0.25 µM,O=C(Nc1ccc(-c2nc3ccccc3c(=O)[nH]2)cc1)c1cccs1
9,2.5 µM,Nc1nc(-c2ccccn2)nc(N)c1Cc1c(F)cccc1Cl
10,0.32 µM,COc1ccc(C2CC(c3ccccc3Cl)=NN2C(=O)CNC(=O)C2CCC2)cc1 (stereo not drawn)
11,0.05 µM,Nc1cc(-c2ccc3ncnc(N4CCOCC4)c3c2)cnc1N
12,16 µM,CC(c1ccc2c(c1)CCCC2)N(C)c1ncc2c(N)nc(N)nc2n1 (stereo not drawn)
13,0.5 µM,COc1cc(Nc2nccc(Nc3onc(C)c3C)n2)cc(S(=O)(=O)C2CCOCC2)c1
14,0.32 µM,CCN(CC)S(=O)(=O)c1ccc(C(=O)Nc2cc(C)nn2-c2nc(C)c(C)c(=O)[nH]2)cc1
15,20 µM,CCCc1nc2nc(N)nc(N)c2cc1CC
16,32 µM,Cc1cc(N2CCc3ccccc3C2)nc(Nc2ccc(S(=O)(=O)N3CCOCC3)cc2)n1
17,0.32 µM,CCC(=O)Nc1ccccc1C(=O)Nc1ccccn1
18,> 40 µM (inactive),COc1ccccc1C=CCN1C[C@H]2CCC[C@@H](C1)C2(O)c1cccnc1 (stereo partly drawn)
19,0.32 µM,CC(=O)Nc1ccc(CN2CCC(N3CC(c4ccccc4)(c4ccccc4)OCC3=O)CC2)cc1
20,> 40 µM (inactive),COCc1cc(Nc2ccccc2)nc(-c2ccccn2)n1
21,2.5 µM,CCN(Cc1nc2ccc(C(=O)N3CCN(c4ncccn4)CC3)cc2[nH]1)C1CCCc2cccnc21 (stereo not drawn)
22,25 µM,CCCN1CCN(Cc2ccc(S(=O)(=O)Nc3cccc(C)c3)cc2)CC1
23,0.025 µM,Cc1cnc(Nc2cc(Cc3ccccc3)nc(NC3CCC(O)CC3)n2)s1 (stereo not drawn)
24,25 µM,O=C(c1cccc(Nc2ncc(-c3ccc4c(c3)OCO4)cn2)c1)N1CCOCC1
25,7.9 µM,O=C(CCCNC(=O)c1ccc(Cl)cc1)Nc1nc(-c2ccccn2)cs1
26,25 µM,O=c1ccn(-c2ccc([N+](=O)[O-])cc2Cl)c2ccc(F)cc12

row,IC50,SMILES
1,0.32 µM,Cc1nn2c(NCCCO)c3c(nc2c1-c1cccs1)CCC3
2,16 µM,Cc1ccc(NC(=O)C(C)n2nc([N+](=O)[O-])c(Br)c2C)cc1Cl (stereo not drawn)
3,20 µM,C=CCN(Cc1cccs1)C(=O)CSc1nnc(-c2ccc3c(c2)OCO3)o1
4,> 40 µM (inactive),CN(Cc1nnnn1C1CCN(Cc2ccc(-n3ccnc3)cc2)CC1)c1ccc(F)cc1F
5,20 µM,Cc1cc(C)c(C#N)c(SCC(=O)c2ccc3c(c2)OCO3)n1
6,2 µM,CCCn1c(NC(=O)Cc2ccc(Cl)cc2)nc2ccccc21
7,0.025 µM,CC(=O)Nc1ccc(-c2csc(NC(=O)c3ccc([N+](=O)[O-])s3)n2)cc1
8,0.4 µM,O=C(COc1ccccc1)Nc1ccccc1C(=O)Nc1nccs1
9,20 µM,C=CCn1nc([N+](=O)[O-])nc1Oc1ccc(Cl)cc1Cl
10,0.63 µM,CCCCn1c(=O)c2c(N)onc2n(CCCC)c1=O
11,0.13 µM,CC(=O)Nc1cccc(Nc2ncnc3nc[nH]c23)c1
12,25 µM,O=C(c1cc2cc(Cl)ccc2[nH]1)N1CCCCC1c1cccnc1 (stereo not drawn)
13,> 40 µM (inactive),CNc1cncc(C2CCCN2C(=O)Cc2ccc3ccccc3c2)n1 (stereo not drawn)
14,0.13 µM,CCCCc1cc(Nc2cc(C3CCC3)[nH]n2)nc(N2CCC2C(N)=O)n1 (stereo not drawn)
15,6.3 µM,Cc1cn[nH]c1C1CCCN(Cc2nc3ccccc3n2C)C1 (stereo not drawn)
16,13 µM,O=C(CN1CCN(c2ccccn2)CC1)Nc1cc(S(=O)(=O)N2CCCCCC2)ccc1Cl
17,10 µM,CCc1nn(-c2ncc(F)c(NC(C)C)n2)c(N)c1C1CCCCC1
18,0.4 µM,Cc1[nH]nc(-c2nc3ccccc3[nH]2)c1C(=O)NC1CCCNC1 (stereo not drawn)
19,20 µM,COc1ccc(-c2cc(C)no2)cc1S(=O)(=O)Nc1ccc(C)c(C)c1
20,32 µM,O=C(NCCc1ccccc1Cl)c1cccn1-c1cccnc1
21,0.63 µM,O=C(Nc1nc(-c2ccccn2)cs1)c1ccccc1-n1cnnn1
22,2.5 µM,Cc1ccccc1CNc1cc(C2CC2)nc(-c2nccn2C)n1
23,0.079 µM,Cc1cc2nc(N3CC[C@H]3C(N)=O)nc(Nc3cc(C4CC4)[nH]n3)c2s1
24,3.2 µM,O=C(NCCNc1noc(-c2ccc([N+](=O)[O-])cc2)n1)c1ccc(Cl)cc1
25,25 µM,CNc1cc(Cn2c(C(=O)c3cc(C)cc(Cl)c3)c(C(C)C)c(=O)[nH]c2=O)ccn1

row,SMILES,IC50
1,CNC(=O)Oc1ccc(C(=O)NCc2ccccc2)cc1OC(=O)NC,0.13 µM
